# Assay results as given in patent EP0001940A1, “Derivatives of eburnamenine, their preparation and their therapeutical application” (SYNTHELABO, priority 1977, dated 1979).
# Tested on: souris de souche CDl
# Experiment: Hypobaric anoxia survival time test (Anoxie hypobare)
# Type: in vivo
# Details: Mus musculus, ip; mean active dose = dose increasing survival time by 100% vs controls, determined graphically; mice, i.p. before the test; 190 mm Hg (5,25% oxygen); read-out: Anoxie hypobare DAM - i.p.
# Text: Des souris de souche CDl sont maintenues dans une atmosphère appauvrie en oxygène, par réalisation d'un vide partiel (190mm de mercure correspondant à 5,25% d'oxygène).
# Le temps de survie des animaux est noté. Ce temps est augmenté par les agents capables de favoriser l'oxygénation tissulaire et en particulier cérébrale. Les composés étudiés sont administrés, à plusieurs doses, par voie intrapéritonéale, […] avant l'essai. Les pourcentages d'augmentation du temps de survie par rapport aux valeurs obtenues chez les animaux témoins sont calculés. La dose active moyenne (DAM), dose qui augmente le temps de survie de 100% est déterminée graphiquement
# Les résultats sont indiqués dans le tableau II suivant pour un nombre représentatif de composés.
row,Compound,ED (100% increase in survival time) [mg/kg]
1,"CCC12CCCN3CCc4c(n(c5cccc(Br)c45)C(C(=O)OC)C1)C32 (stereo not drawn) [compound 1, bromo-9 désoxyvincamine]",8
2,"CCC12CCCN3CCc4c(n(c5ccc(Br)cc45)C(C(=O)OC)C1)C32 (stereo not drawn) [compound 2, bromo-10 désoxyvincamine]",3
3,CCOC(=O)C1CC2(CC)CCCN3CCc4c(n1c1cccc(Br)c41)C32 (stereo not drawn) [compound 3],8
4,CCOC(=O)C1CC2(CC)CCCN3CCc4c(n1c1ccc(Br)cc41)C32 (stereo not drawn) [compound 4],1
5,CCC12CCCN3CCc4c(n(c5ccc(Br)cc45)C(C(=O)OC(C)C)C1)C32 (stereo not drawn) [compound 5],3
6,"CCC12CCCN3CCc4c(n(c5ccc(Br)cc45)C(C(N)=O)C1)C32 (stereo not drawn) [compound 6, Bromo-10 désoxyvincaminamide]",1
7,CCC12CCCN3CCc4c(n(c5ccc(Br)cc45)C(C(=O)NC)C1)C32 (stereo not drawn) [compound 7],2
8,CCN(CC)C(=O)C1CC2(CC)CCCN3CCc4c(n1c1ccc(Br)cc41)C32 (stereo not drawn) [compound 8],4
9,CCC12CCCN3CCc4c(n(c5ccc(Br)cc45)C(C(=O)NC4CC4)C1)C32 (stereo not drawn) [compound 9],0.5 to 1
10,"CCCCOC(=O)C1(O)CC2(CC)CCCN3CCc4c(n1c1ccc(Br)cc41)C32 (stereo not drawn) [compound 13, bromo-10 vincaminate de n-butyle]",3 to 4
11,CCOC(=O)C1(O)CC2(CC)CCCN3CCc4c(n1c1ccc(Br)cc41)C32 (stereo not drawn) [compound 14],3
12,CCOC(=O)C1=CC2(CC)CCCN3CCc4c(n1c1ccc(Br)cc41)C32 (stereo not drawn) [compound 18],7
